# Values of other authors as cited in US20220308074A1, “QUANTIFICATION METHOD OF VITAMIN D DERIVATIVE, ENZYME FOR QUANTIFICATION, COMPOSITION FOR QUANTIFICATION, KIT FOR QUANTIFICATION, ELECTRODE, SENSOR CHIP, AND SENSOR” (KIKKOMAN CORPORATION, priority 2019, published 2022).
# Where two headings read alike, the source gives them in different places.
half-life in the blood (in vivo),Substance,half-life in the blood (blood)
–,"1,25-dihydroxyvitamin D",about 15 hours
2-3 weeks,25-hydroxyvitamin D,–
